Test results as given in PMC11650735, “Challenging Reported Frizzled-Targeting Compounds in Selective Assays Reveals Lack of Functional Inhibition and Claimed Profiles” (ACS Pharmacology & Translational Science, 2024).
“Also recorded” adds a separate entry of the source. Like-named read-outs stand apart in the source and are kept apart here.

What was measured:
[1] = system: CHIR99021-stimulated Wnt pathway activation; assay: TopFlash assay in reporter wild-type HEK293T line, CHIR99021-stimulated; assay type: cell-based, human; details: for inhibition of CHIR99021-stimulated response compared with Wnt3a-stimulated, in words: wild-type reporter HEK293T, TopFlash
[2] = system: Wnt3a-stimulated Wnt pathway activation; assay: TopFlash assay in reporter wild-type HEK293T line, Wnt3a-stimulated; assay type: cell-based, human; details: for IC50: Homo sapiens, HEK-293T, Wnt3a
[3] = system: individually reexpressed FZDs (1,2,4,5,7,8, and 10); assay: TopFlash in ΔFZD1–10 HEK293T, panel of individually reexpressed FZDs, Wnt3a-stimulated (collective statements)
[4] = system: HEK293T cells; assay: Renilla luciferase (pRL-CMV) toxicity/general transcription readout in wild-type reporter HEK293T; details: for IC50: Homo sapiens, HEK-293T, read-out: IC50 (Renilla)
[5] = system: CHIR99021-induced Wnt pathway activation (FZD-independent); assay: TopFlash in ΔFZD1–10 HEK293T without FZD (pcDNA), CHIR99021-stimulated
[6] = system: ΔFZD1–10 HEK293T cells; details: for toxicity / general transcriptional inhibition by Renilla signal, in words: Renilla luciferase
[7] = system: Wnt signaling in TopFlash-transfected 3T3 cells; set-up: method as in PMID 26504084; details: read-out: potency; cited from earlier work
[8] = molecular target: firefly luciferase (Photinus pyralis, UniProt P08659); assay: Compound added to prestimulated TopFlash cells immediately prior to lysis and measurement; details: compound added directly before cell lysis
[9] = system: FZD7; set-up: method as in PMID 37669317; details: cited from earlier work
[10] = molecular target: T1, FZD7 (Homo sapiens, UniProt O75084); assay: TopFlash in ΔFZD1–10 HEK293T with reexpressed FZD7, Wnt3a-stimulated; details: FZD7 reexpression, firefly TopFlash
[11] = molecular target: T1, FZD7; assay: cell-based
[12] = molecular target: T1, FZD7; assay: NanoLuc-substituted TopFlash reporter in ΔFZD1–10 HEK293T cotransfected with FZD7, Wnt3a
[13] = system: Wnt3a/FZD7-mediated cytoplasmic β-catenin accumulation; assay: Western blot of FZD7-dependent cytoplasmic β-catenin accumulation in ΔFZD1–10 HEK293T; assay type: cell-based, human; details: 10 μM, FZD7-transfected ΔFZD1–10 HEK293T
Experimental: In 24-well plates, a ΔFZD1–10 HEK293T cell line was reinfected with a baculovirus expressing FZD7 or a control baculovirus at a density of 100,000 cells/well. The new medium containing the 10 μM F7H-28 derivative and the indicated Wnt activators (500 ng/mL Wnt3a or 1 μM CHIR99021) was added and incubated until the next day. The medium was then removed, and 500 μL of 1× PBS was used twice for washing. After adding 30 μL of ice-cold 1× TBS supplemented with 4 mM EDTA and 1× protease inhibitor cocktail, the cells were lysed by scraping and passed through an insulin 30G needle 10 times. The samples were centrifuged at 18,000g and 4 °C for 10 min to remove debris. Western blot was performed on 15 μL of each supernatant and developed using antibodies against α-tubulin and β-catenin.

[14] = molecular target: T2, FZD4 (Mus musculus, UniProt Q61088); assay: TopFlash in ΔFZD1–10 HEK293T with reexpressed FZD4, Wnt3a-stimulated; details: ΔFZD1–10 HEK293T + FZD4, Wnt3a, up to 50 μM
T2 sequence (Q61088 37-537): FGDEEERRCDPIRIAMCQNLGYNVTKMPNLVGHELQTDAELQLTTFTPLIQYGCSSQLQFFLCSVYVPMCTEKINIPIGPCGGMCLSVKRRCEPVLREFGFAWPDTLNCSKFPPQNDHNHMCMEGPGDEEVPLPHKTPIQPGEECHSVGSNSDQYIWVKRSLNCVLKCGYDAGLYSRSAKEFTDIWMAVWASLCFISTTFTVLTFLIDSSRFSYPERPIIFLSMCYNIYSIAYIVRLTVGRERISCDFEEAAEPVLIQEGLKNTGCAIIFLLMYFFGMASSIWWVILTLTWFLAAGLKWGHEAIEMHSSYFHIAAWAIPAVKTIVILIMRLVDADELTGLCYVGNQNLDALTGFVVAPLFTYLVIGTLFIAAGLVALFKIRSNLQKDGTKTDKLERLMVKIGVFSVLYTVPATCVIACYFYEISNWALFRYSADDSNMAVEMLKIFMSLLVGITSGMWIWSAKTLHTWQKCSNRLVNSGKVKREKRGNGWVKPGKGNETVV

[15] = system: FZD7; set-up: method as in PMID 29207657; details: claimed FZD7 inhibition; cited from earlier work
[16] = system: HEK293T cells
[17] = system: mouse FZD8; set-up: method as in PMID 32049522; details: HEK293T FZD1,2,7 knockout + mouse FZD8; cited from earlier work
[18] = read-out: IC50 / potency, ΔFZD1–10 HEK293T without FZD, CHIR99021

Chain of firefly luciferase (P08659 whole entry): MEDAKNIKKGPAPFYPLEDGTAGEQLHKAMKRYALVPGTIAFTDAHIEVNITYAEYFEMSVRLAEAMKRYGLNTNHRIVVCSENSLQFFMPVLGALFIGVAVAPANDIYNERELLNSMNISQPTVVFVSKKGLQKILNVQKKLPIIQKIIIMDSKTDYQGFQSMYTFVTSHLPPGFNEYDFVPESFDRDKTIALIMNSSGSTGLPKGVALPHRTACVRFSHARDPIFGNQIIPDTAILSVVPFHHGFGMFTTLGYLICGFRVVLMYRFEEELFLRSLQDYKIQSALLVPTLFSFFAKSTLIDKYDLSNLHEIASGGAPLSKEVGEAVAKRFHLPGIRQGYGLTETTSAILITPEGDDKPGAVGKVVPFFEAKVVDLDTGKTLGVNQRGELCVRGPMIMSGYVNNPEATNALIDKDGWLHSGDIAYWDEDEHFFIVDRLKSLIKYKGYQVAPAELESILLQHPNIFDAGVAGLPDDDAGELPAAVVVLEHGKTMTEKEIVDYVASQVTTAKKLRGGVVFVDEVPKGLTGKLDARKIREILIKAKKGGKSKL

COc1ccc(C(=O)Nc2ccccc2C(=O)NC(C(=O)NNC(=O)COc2ccccc2)C(C)C)cc1 (centres unmarked) [3235-0367]
inhibition of CHIR99021-stimulated response compared with Wnt3a-stimulated, in words [1]: overlapping inhibition curve
IC50 ([2]; wild-type reporter HEK293T, TopFlash): ~8 µM
selectivity among FZDs, in words ([3]; individual FZDs including FZD8): no significant selectivity
IC50 [4]: > 50 µM
IC50 [5, 18]: ~20 µM
IC50 ([6]; read-out: IC50 (Renilla), Renilla luciferase signal): > 50 µM
IC50 [7]: 7.1 µM

O=C(CSc1ccc(NC(=O)c2ccc(F)cc2)cc1)Nc1nc(-c2ccccc2)cs1 [F7H-28]
direct effect on firefly luciferase, in words [8]: inhibits the firefly luciferase enzymatic activity
IC50 [9]: 0.04 µM
potency compared with CHIR99021-stimulated cells, in words [10]: same potency
IC50 [4]: > 2 µM
IC50 [11]: > 50 µM
effect on NanoLuc Wnt reporter, in words [12]: does not report significant changes
effect on cytoplasmic β-catenin signal (Western blot), in words [13]: does not reduce this signal

CSCC[C@H](NC(=O)[C@@H](NC(=O)[C@H](Cc1c[nH]cn1)NC(=O)[C@H](CS)NC(=O)[C@H](Cc1c[nH]c2ccccc12)NC(=O)[C@H](Cc1ccccc1)NC(=O)[C@H](CCC(=O)O)NC(=O)[C@H](CC(C)C)NC(=O)[C@H](CC(=O)O)NC(=O)[C@H](CC(=O)O)NC(=O)[C@H](CO)NC(=O)[C@@H]1CCCN1C(=O)[C@@H](N)CC(C)C)C(C)C)C(=O)N[C@@H](Cc1ccc(O)cc1)C(=O)O [Fz7–21, LPSDDLEFWCHVMY]
toxicity / general transcriptional inhibition by Renilla signal, in words [6]: no unspecific toxicity

O=C(Nc1cc(O)cc(-c2cccs2)c1)Nc1ccc2ccccc2c1 [FzM1]
activity against Wnt signaling, in words ([2]; wild-type HEK293T, up to 50 μM): no detectable activity; also recorded: no statistically discernible effect
activity against Wnt signaling, in words ([3]; any of the FZDs in ΔFZD1–10 HEK293T, Wnt3a, up to 50 μM): no detectable activity; also recorded: no statistically discernible effect
effect on FZD4-dependent Wnt3a signaling, in words [14]: no statistically discernible effect

O=C(/C=C/c1ccc2c(c1)OCO2)Nc1ccc(-n2cnc3ccccc32)cc1 [SRI35959]
inhibition of CHIR99021-stimulated response compared with Wnt3a-stimulated, in words [1]: slightly (but significantly) better
IC50 [15]: ~3 µM
toxicity by effect on Renilla luciferase, in words ([4]; wild-type reporter HEK293T, Renilla luciferase): some toxicity
IC50 [5, 18]: 10 µM
toxicity / general transcriptional inhibition by Renilla signal, in words [6]: some toxicity

NC(=O)N1c2ccccc2C=Cc2ccccc21 [carbamazepine]
inhibition of CHIR99021-stimulated response compared with Wnt3a-stimulated, in words [1]: slightly (but significantly) better
toxicity by effect on Renilla luciferase, in words [16]: some toxicity
inhibition of Wnt3a-induced signal, in words [17]: partially inhibited
IC50 [5, 18]: ~50 µM
toxicity / general transcriptional inhibition by Renilla signal, in words [6]: some toxicity

O=C(Nc1ccc([N+](=O)[O-])cc1Cl)c1cc(Cl)ccc1O [niclosamide]
IC50 ([1]; Homo sapiens, HEK-293T, wild-type HEK293T reporter line): 0.1 µM
IC50 ([2]; wild-type HEK293T reporter line): 0.1 µM
IC50 ([3]; all individually reexpressed FZDs, Wnt3a): 0.1 µM
IC50 ([5]; CHIR99021 in cells deprived of any FZD protein): 0.1 µM
